Values after ≈ are worked out from the molar mass of the structure shown.
Key:
[1] = tested on: MCF-7 cells; assay: MTT cell viability assay, MCF-7; type: cell-based, human; conditions: mean ± SD; for IC50: Homo sapiens, MCF7, 72 h exposure
Method: (§1) The anticancer activity of the studied compounds (3a–h) was explored with regards to two human breast cancer cell lines, namely the estrogen receptor positive (ER+) MCF-7 cells and the triple negative MDA-MB-231 cells (ER-, PR-, and HER-2/Neu-). Cells were continuously exposed to the test substances for 72 h, after which their viability was assessed by means of the MTT assay. Table 2 lists the determined IC50 values for the investigated substances and the reference drug, thalidomide. […] Additionally, the same test for all the compounds has been performed on nonmalignant breast epithelial cells (MCF-10A) to ascertain their potential cytotoxicity.
(§2) The four cell lines used in this work (MCF-7, MDA-MB-231, MCF-10A, and 3T3-L1) were obtained from the American Type Culture Collection (ATCC, Manassas, VA, USA). All cell lines were maintained at 37 °C in a humidified atmosphere of 95% air and 5% CO2 and periodically screened for contamination. MCF-7, human breast cancer cells estrogen receptor (ER)-positive, and human breast cancer triple negative MDA-MB231 were grown in DMEM-F12 medium containing 2 mmol/L L-glutamine, 1 mg/mL penicillin–streptomycin, and 5% newborn calf serum (NCS) or 5% fetal bovine serum (FBS), respectively. MCF-10A human mammary epithelial cells were cultured in DMEM/F12 medium, supplemented with 5% horse serum (HS) (Eurobio, Les Ullis, Cedex, France), 100 U/mL penicillin/streptomycin, […], 20 ng/mL hEGF (human epidermal growth factor), […], and […] (Sigma-Aldrich, Milano, Italy). BALB/3T3 murine fibroblast cells were cultured in DMEM high glucose supplemented with 10% bovine calf serum (BCS), 1% L-glutamine, and 100 U/mL penicillin/streptomycin.
(§3) Cell viability was evaluated by means of the 3-(4,5-dimethylthiazol-2-y1)-2,5-diphenyltetra zolium bromide (MTT, Sigma-Aldrich, Milan, Italy) assay. On 48-well plates, cells were seeded, and they were cultured in complete medium. Before being treated, cells were starved in serum-free medium for 24 h to allow cell cycle synchronization. Subsequently, cells were exposed to increasing doses of each compound for 72 h in phenol-red-free media supplemented with 1% serum before fresh MTT was added to each well (final concentration: 0.5 mg/mL). Cells were lysed with DMSO after 2 h of incubation at 37 °C, and optical density at 570 nm was then determined with a microplate reader. Using GraphPad Prism 9 software (GraphPad Inc., San Diego, CA, USA), the mean absorbance for each sample was expressed as a percentage over the control and plotted vs. drug concentrations to establish the IC50 values. The given standard deviations (SDs) are indicative of three separate tests carried out in triplicate.

[2] = tested on: MDA-MB-231 cells; assay: MTT cell viability assay, MDA-MB-231; type: cell-based, human; conditions: mean ± SD; for IC50: Homo sapiens, MDA-MB-231, 72 h exposure
Method: as §1, §2, §3

[3] = tested on: Candida albicans 90028; assay: Antifungal microdilution, C. albicans ATCC 90028; type: cell-based; conditions: microdilution CLSI M27-A3, 48 h, 37 °C
Method: In accordance with CLSI guidelines, compounds 3a–h were tested against a variety of fungal strains (Candida albicans 10231, Candida albicans 90028, Candida glabrata 15126, and Candida parapsilosis 22019) belonging to the ATCC collection. Amphotericin B was utilized as a reference drug. A similar trend of results, or even better than that obtained against bacteria, was assessed against fungal strains. […] Also, in this case, compound 3h emerged as the best of the series, with MICs of 16 μg/mL against Candida glabrata and Candida parapsilosis strains and 32 μg/mL against Candida albicans strains.
A microdilution technique described by the Clinical and Laboratory Standards Institute (CLSI, M27-A3) was used to assess the antifungal activity. The following fungal strains, belonging to the ATCC collection and available as freeze-dried discs, were used: C. albicans ATCC 10231, C. albicans ATCC 90028, C. glabrata ATCC 15126, and C. parapsilosis ATCC 22019. Stock solutions were prepared and preserved with purity as previously described for the antibacterial studies. Each yeast strain’s pre-cultures were made in Sabouraud broth (SAB) and allowed to grow until they stopped at 37 °C. By using a spectrophotometric technique (530 nm, range 0.12–0.15), the turbidity of the yeast stock suspension was calibrated to 0.5 McFarland Standard. Next, the standardized suspension was diluted first at 1:50 with SAB and then at 1:20 in the same medium to have […]. A total of 100 µL of inoculum was seeded into each well. As a control for growth, several wells containing only inoculated broth were prepared. The plates were incubated for 48 h at 37 °C, and the MIC values were calculated as the final well with no fungal growth. […] MIC values were observed based on the absence of fungal growth in the final well. The MICs were calculated by conducting the antifungal test three times in duplicate. As a control, amphotericin B was used.

Row | Compound | IC50 [1] [µM] | IC50 [2] [µM] | MIC [3] [µg/mL] | IC50 MCF-7 ([1]; 72 h exposure) | IC50 MDA-MB-231 ([2]; 72 h exposure)
1 | O=C1c2ccccc2C(=O)N1c1nc2ccc(F)cc2s1 [3b, 2-(6-Fluoro-1,3-benzothiazol-2-yl)-1H-isoindole-1,3(2H)-dione] | 91.5 ± 0.6 | 71.2 ± 1 | 64 (≈ 215 µM) | – | –
2 | Cc1ccc2nc(N3C(=O)c4ccccc4C3=O)sc2c1 [3d, 2-[6-Methyl-1,3-benzothiazol-2-yl]-1H-isoindole-1,3(2H)-dione] | 66 ± 1.2 | 202.6 ± 0.6 | > 512 | – | –
3 | COc1cc2nc(N3C(=O)c4ccccc4C3=O)sc2cc1OC [3f, 2-[5,6-Dimethoxy-1,3-benzothiazol-2-yl]-1H-isoindole-1,3(2H)-dione] | 93 ± 1.4 | 49.6 ± 1 | 64 (≈ 188 µM) | – | –
4 | O=C1c2ccccc2C(=O)N1c1nc2ccc(O)cc2s1 [3g, 2-[6-Hydroxy-1,3-benzothiazol-2-yl]-1H-isoindole-1,3(2H)-dione] | 71.2 ± 0.7 | 63.3 ± 0.7 | 64 (≈ 216 µM) | – | –
5 | O=C1c2ccccc2C(=O)N1c1nc2ccc(Oc3ccccc3)cc2s1 [3h, 2-[6-Phenoxy-1,3-benzothiazol-2-yl]-1H-isoindole-1,3(2H)-dione] | 26.2 ± 0.9 | 14 ± 0.5 | 32 (≈ 85.9 µM) | – | –

Now from value to compound:

Row | IC50 [1] [µM] | IC50 [2] [µM] | MIC [3] [µg/mL] | IC50 MCF-7 ([1]; 72 h exposure) | IC50 MDA-MB-231 ([2]; 72 h exposure) | Compound
6 | 165.5 ± 1.1 | 81.8 ± 0.8 | 64 (≈ 228 µM) | – | – | O=C1c2ccccc2C(=O)N1c1nc2ccccc2s1 [3a, 2-(1,3-benzothiazol-2-yl)-1H-isoindole-1,3(2H)-dione]
7 | > 500 | > 500 | 64 (≈ 184 µM) | did not possess any activity | did not possess any activity | O=C1c2ccccc2C(=O)N1c1nc2ccc(C(F)(F)F)cc2s1 [3c, 2-[6-Trifluoromethyl-1,3-benzothiazol-2-yl]-1H-isoindole-1,3(2H)-dione]
8 | 223.1 ± 0.9 | 102.8 ± 0.9 | 64 (≈ 206 µM) | – | – | COc1ccc2nc(N3C(=O)c4ccccc4C3=O)sc2c1 [3e, 2-[6-Methoxy-1,3-benzothiazol-2-yl]-1H-isoindole-1,3(2H)-dione]

Reference: publication PMC10740580, “Benzothiazole-Phthalimide Hybrids as Anti-Breast Cancer and Antimicrobial Agents” (Antibiotics, 2023)
